Reference: patent US7943176B2, “Oral dosage form for propiverine or its pharmaceutically acceptable salts with an extended release of the active ingredient” (Apogepha Arzneimittel GmbH, priority 2001, dated 2011)
Where “and” joins values, the source holds several entries; their conditions need not be identical. Equal entries are not always repeated. Structures can show the parent of a compound that is named as a salt. Where two headings read alike, the source gives them in different places.

Columns and labels:
[1] = water, pH=4.0-8.0; cited from earlier work
[2] = water, 25° C.; cited from earlier work
[3] = Solubility of propiverine-hydrochloride in water; format: physicochemical; settings: aqueous buffer
Description: (§1) The distribution coefficient and the solubility of propiverine-hydrochloride in dependence of the pH value are known (determination of the amount of propiverine in the aqueous phase via HPLC).
Solubility of propiverine-hydrochloride in water

[4] = Distribution coefficient of propiverine-hydrochloride (1-octanol/water, 25° C.); format: physicochemical
Protocol: as §1
Distribution coefficient of propiverine-hydrochloride (1-octanol/water, 25° C.)

CCCOC(C(=O)OC1CC[N+](C)([O-])CC1)(c1ccccc1)c1ccccc1 (stereo not shown) [Propiverine-N-oxide, propiverine-N-oxide]
solubility [1]: > 127 mg/mL and > 99 mg/mL

CCCOC(C(=O)OC1CCN(C)CC1)(c1ccccc1)c1ccccc1 [propiverine, 2,2-diphenyl-2-(1-propoxy)acetic acid(1-methyl-piperid-4-yl)ester]
pKa value [2]: 7.35±0.1

CCCOC(C(=O)OC1CCN(C)CC1)(c1ccccc1)c1ccccc1 [propiverine-hydrochloride]
solubility ([3]; pH 5.8, 24 ° C.): > 200 mg/mL
solubility ([3]; pH 5.8, 37 ° C.): 368 mg/mL
solubility ([3]; pH 6.0, 24 ° C.): 209 mg/mL
solubility ([3]; pH 7.0, 24 ° C.): 1.2 mg/mL
solubility ([3]; pH 7.2, 24 ° C.): 1.1 mg/mL
Log [K] ([4]; pH 1.0): 1.3
K (distribution coefficient) ([4]; pH 1.0, mean of three): 22
Log [K] ([4]; pH 5.0): 1.1
K (distribution coefficient) ([4]; pH 5.0, mean of three): 13
Log [K] ([4]; pH 6.0): 2.4
K (distribution coefficient) ([4]; pH 6.0, mean of three): 227
Log [K] ([4]; pH 6.5): 2.9
K (distribution coefficient) ([4]; pH 6.5, mean of three): 884
Log [K] ([4]; pH 6.8): 3.8
K (distribution coefficient) ([4]; pH 6.8, mean of three): 6904
Log [K] ([4]; pH 7.0): 4.0
K (distribution coefficient) ([4]; pH 7.0, mean of three): 10346
Log [K] ([4]; pH 7.2): 4.2
K (distribution coefficient) ([4]; pH 7.2, mean of three): 15438
Log [K] ([4]; pH 7.5): 4.4
K (distribution coefficient) ([4]; pH 7.5, mean of three): 26068
Log [K] ([4]; pH 8.0): 4.7
K (distribution coefficient) ([4]; pH 8.0, mean of three): 52372
